Reference: a compilation of properties of binary mixtures (doi:10.1021/acs.jpcb.5b11900)

Experiment: xn = mol fraction of the nth substance listed
Details: 101 kPa

CC[NH+](CC)CC.O=[N+]([O-])[O-] + CC[NH3+].O=[N+]([O-])[O-]
Details | electrical conductivity [S/m] | viscosity [mPa·s]
293.15 K, x1 = 0.0499 | 1.67 | 46.6
293.15 K, x1 = 0.0999 | 1.45 | 51.2
293.15 K, x1 = 0.3995 | 0.71 | 90.2
293.15 K, x1 = 0.4472 | 0.62 | 100
293.15 K, x1 = 0.5003 | 0.56 | 108.1
293.15 K, x1 = 0.5485 | 0.56 | 105.4
298.15 K, x1 = 0.0499 | 1.96 | 39
298.15 K, x1 = 0.0999 | 1.71 | 42.5
298.15 K, x1 = 0.1997 | 1.36 | 51.1
298.15 K, x1 = 0.25 | 1.16 | 56.2
298.15 K, x1 = 0.2993 | 1.02 | 62.4
298.15 K, x1 = 0.3475 | 0.95 | 66.9
298.15 K, x1 = 0.3995 | 0.85 | 71.8
298.15 K, x1 = 0.4472 | 0.75 | 79.3
298.15 K, x1 = 0.5003 | 0.68 | 85.2
298.15 K, x1 = 0.5485 | 0.68 | 83.1
303.15 K, x1 = 0.0499 | 2.27 | 32.9
303.15 K, x1 = 0.0999 | 1.99 | 35.7
303.15 K, x1 = 0.149 | 1.77 | 37.9
303.15 K, x1 = 0.1997 | 1.59 | 42.5
303.15 K, x1 = 0.25 | 1.36 | 46.5
303.15 K, x1 = 0.2993 | 1.2 | 51.4
303.15 K, x1 = 0.3995 | 1.01 | 58.5
303.15 K, x1 = 0.4472 | 0.9 | 64.3
303.15 K, x1 = 0.5003 | 0.82 | 68.8
303.15 K, x1 = 0.5485 | 0.81 | 67
308.15 K, x1 = 0.0499 | 2.6 | 28.1
308.15 K, x1 = 0.0999 | 2.29 | 30.3
308.15 K, x1 = 0.149 | 2.05 | 32.1
308.15 K, x1 = 0.1997 | 1.84 | 35.7
308.15 K, x1 = 0.25 | 1.58 | 39
308.15 K, x1 = 0.2993 | 1.4 | 42.8
308.15 K, x1 = 0.3475 | 1.31 | 45.4
308.15 K, x1 = 0.3995 | 1.18 | 48.3
308.15 K, x1 = 0.4472 | 1.06 | 52.8
308.15 K, x1 = 0.5003 | 0.96 | 56.3
308.15 K, x1 = 0.5485 | 0.96 | 54.7
313.15 K, x1 = 0.0499 | 2.96 | 24.1
313.15 K, x1 = 0.0999 | 2.61 | 26
313.15 K, x1 = 0.149 | 2.35 | 27.7
313.15 K, x1 = 0.1997 | 2.12 | 30.7
313.15 K, x1 = 0.25 | 1.81 | 33
313.15 K, x1 = 0.2993 | 1.63 | 36.1
313.15 K, x1 = 0.3475 | 1.52 | 38.5
313.15 K, x1 = 0.5003 | 1.13 | 47.1
313.15 K, x1 = 0.5485 | 1.12 | 45.8
318.15 K, x1 = 0.0499 | 3.33 | 21
318.15 K, x1 = 0.0999 | 2.95 | 22.6
318.15 K, x1 = 0.149 | 2.66 | 23.7
318.15 K, x1 = 0.1997 | 2.41 | 26
318.15 K, x1 = 0.25 | 2.07 | 28.2
318.15 K, x1 = 0.2993 | 1.86 | 30.6
318.15 K, x1 = 0.3475 | 1.74 | 32.3
318.15 K, x1 = 0.3995 | 1.58 | 34.1
318.15 K, x1 = 0.4472 | 1.41 | 36.9
318.15 K, x1 = 0.5003 | 1.3 | 39.1
318.15 K, x1 = 0.5485 | 1.29 | 37.9
323.15 K, x1 = 0.0499 | 3.73 | 18.4
323.15 K, x1 = 0.149 | 2.99 | 20.6
323.15 K, x1 = 0.1997 | 2.71 | 22.5
323.15 K, x1 = 0.25 | 2.34 | 24.2
323.15 K, x1 = 0.2993 | 2.11 | 26.3
323.15 K, x1 = 0.3475 | 1.97 | 27.6
323.15 K, x1 = 0.4472 | 1.61 | 31.3
323.15 K, x1 = 0.5485 | 1.48 | 32.1
328.15 K, x1 = 0.0499 | – | 16.3
328.15 K, x1 = 0.0999 | – | 17.3
328.15 K, x1 = 0.1997 | – | 19.7
328.15 K, x1 = 0.25 | – | 21
328.15 K, x1 = 0.2993 | – | 22.8
328.15 K, x1 = 0.3475 | – | 23.9
328.15 K, x1 = 0.4472 | – | 26.9
333.15 K, x1 = 0.0499 | – | 14.4
333.15 K, x1 = 0.0999 | – | 15.3
333.15 K, x1 = 0.149 | – | 16.1
333.15 K, x1 = 0.25 | – | 18.4
333.15 K, x1 = 0.2993 | – | 19.9
333.15 K, x1 = 0.3475 | – | 21
333.15 K, x1 = 0.3995 | – | 22
333.15 K, x1 = 0.4472 | – | 23.5
338.15 K, x1 = 0.0499 | – | 12.9
338.15 K, x1 = 0.0999 | – | 13.7
338.15 K, x1 = 0.149 | – | 14.2
338.15 K, x1 = 0.1997 | – | 15.2
338.15 K, x1 = 0.25 | – | 16.3
338.15 K, x1 = 0.3475 | – | 18.2
338.15 K, x1 = 0.3995 | – | 19
338.15 K, x1 = 0.5003 | – | 21.2
338.15 K, x1 = 0.5485 | – | 20.5
343.15 K, x1 = 0.0999 | – | 12.3
343.15 K, x1 = 0.149 | – | 12.7
343.15 K, x1 = 0.1997 | – | 13.5
343.15 K, x1 = 0.25 | – | 14.5
343.15 K, x1 = 0.3475 | – | 16.1
343.15 K, x1 = 0.3995 | – | 16.8
343.15 K, x1 = 0.4472 | – | 17.8
343.15 K, x1 = 0.5003 | – | 19.3
343.15 K, x1 = 0.5485 | – | 17.9
348.15 K, x1 = 0.0499 | – | 10.5
348.15 K, x1 = 0.149 | – | 11.4
348.15 K, x1 = 0.1997 | – | 12.1
348.15 K, x1 = 0.25 | – | 13
348.15 K, x1 = 0.3475 | – | 14.3
348.15 K, x1 = 0.3995 | – | 14.9
353.15 K, x1 = 0.0999 | – | 9.6
353.15 K, x1 = 0.149 | – | 10.4
353.15 K, x1 = 0.1997 | – | 11
353.15 K, x1 = 0.25 | – | 11.7
353.15 K, x1 = 0.3475 | – | 13
353.15 K, x1 = 0.3995 | – | 13.5
353.15 K, x1 = 0.4472 | – | 14.2
